Experiment [1] concerns MCF-7 breast adenocarcinoma cells. In words: MCF-7 proliferation assay (14C-thymidine), antagonist mode. Format: cell-based. As to conditions: Homo sapiens, MCF7, with 10 pM E2. Here is the method: MCF-7 breast adenocarcinoma cells (ATCC HTB 22) are maintained in MEM (minimal essential medium, phenol red-free, Gibco BRL) supplemented with 10% fetal bovine serum (FBS) (V/V), L-glutamine (2 mM), sodium pyruvate (1 mM), HEPES ((N-[2-hydroxyethyl]piperazine-N′-[2-ethanesulfonic acid] 10 mM}, non-essential amino acids (0.1 mM) and Penicillin Streptomycin (1×). Seven days prior to assay, MCF-7 cells are switched to assay media which is the same as maintenance medium except supplemented with 10% dextran-coated charcoal-stripped fetal bovine serum (DCC-FBS) assay medium in place of 10% FBS. MCF-7 cells are removed from flasks using 10× Trypsin EDTA (phenol red free, Gibco BRL) and diluted to 1× in (Ca++/Mg++ free HBSS (phenol red-free). Cells are adjusted to 80,000 cells/ml in assay medium. […] For each of the agonist plates, a basal level (media) and a maximum stimulated level (with 1 μM E2) is determined. For each of the antagonist plates, a basal level (media) and a E2 (10 pM) alone control is determined. […] The plates are incubated overnight in the same incubator and then counted on the Wallac Microbeta counter. […] For the agonist mode, an EC50 and percent of maximum E2 stimulation and concentration of maximum stimulation is calculated.

Experiment [2] concerns Ishikawa human endometrial tumor cells. In words: Ishikawa cell assay (PNPP readout), agonist and antagonist modes. Type of experiment: cell-based. To be noted: for IC50: Homo sapiens, Ishikawa, antagonist mode, with 1 nM E2; for Ishikawa Agonist % Eff: agonist mode, % efficacy versus the response to Tamoxifen. An excerpt: Ishikawa human endometrial tumor cells are maintained in MEM (minimum essential medium, with Earle's salts and L-Glutamine, Gibco BRL, Gaithersburg, Md.), supplemented with 10% fetal bovine serum (FBS) (V/V), (Gibco BRL). One day prior to assay, growth media is changed to assay medium, DMEM/F-12 (3:1) (Dulbecco's Modified Eagle Medium: Nutrient Mixture F-12, 3:1 Mixture, phenol red-free, Gibco BRL) supplemented with 5% dextran coated charcoal stripped fetal bovine serum (DCC-FBS) (Hyclone, Logen, Utah), L-Glutamine (2 mM), MEM sodium pyruvate (1 mM), HEPES (N-[2-hydroxyethyl]piperazine-N′-[2-ethanesulfonic acid] 2 mM) all from Gibco BRL). After an overnight incubation, ishikawa cells are rinsed with Dulbecco's Phosphate Buffered Saline (1×) (D-PBS) without Ca^+2 and Mg^+2 (Gibco BRL), and trypsinized by a 3 minute incubation with 0.25% Trypsin/EDTA, phenol red-free (Gibco BRL). Cells are resuspended in assay medium and adjusted to 250,000 cells/ml. Approximately 25,000 cells in a 100 ul media are added to flat-bottom 96 wells microculture plates (Costar 3596) and incubated at 37° C. in a 5% CO2 humidified incubator for 24 hours. The next day, serial dilutions of compounds are prepared in assay medium (at 6 times the finial concentration in the assay). The assay is run in dual mode, agonist and antagonist modes. For the agonist mode, plates receive 25 μl/well of assay medium followed by 25 μl/well of diluted compounds (at 6× the final concentrations). For the antagonist mode, plates receive 25 µl/well of 6 nM E2 (β-Estradiol, Sigma, St. Louis, Mo.) followed by 25 μl/well of diluted compounds (at 6× the final concentrations). After an additional 48-hour incubation at 37° C. in a 5% CO2 humidified incubator, media is aspirated from wells and 100 μl fresh assay medium is added to each microculture. Serial dilutions of compounds are prepared and added to the cells as described above. After an additional 72 hour incubation at 37° C. in a 5% CO2 humidified incubator, the assay is quenched by removing media and rinsing plates twice in Dulbecco's Phosphate Buffered Saline (1×) (D-PBS) (Gibco BRL). The plates are dried for 5 min and frozen at −70° C. for at least 1 hour. The plates are then removed from the freezer and allowed to thaw at room temperature. To each well, 100 μl of 1-Step™ PNPP (Pierce Chemical Company, Rockford, Ill.) is added. After a 20-minute incubation, plates are read on a spectophotometer at 405 nm. The data is fitted to a linear interpolation to derive EC50 (for agonist mode) or IC50 (for antagonist mode) values. For the agonist mode, a % efficacy for each compound is calculated versus the response to Tamoxifen. For the antagonist mode, a % efficacy for each compound is calculated versus E2 (1 nM) alone.

The target of a further experiment is T1, ERAlpha receptor (Homo sapiens, UniProt P03372).
T1 construct: purchased PanVera
T1 sequence (P03372 1-595): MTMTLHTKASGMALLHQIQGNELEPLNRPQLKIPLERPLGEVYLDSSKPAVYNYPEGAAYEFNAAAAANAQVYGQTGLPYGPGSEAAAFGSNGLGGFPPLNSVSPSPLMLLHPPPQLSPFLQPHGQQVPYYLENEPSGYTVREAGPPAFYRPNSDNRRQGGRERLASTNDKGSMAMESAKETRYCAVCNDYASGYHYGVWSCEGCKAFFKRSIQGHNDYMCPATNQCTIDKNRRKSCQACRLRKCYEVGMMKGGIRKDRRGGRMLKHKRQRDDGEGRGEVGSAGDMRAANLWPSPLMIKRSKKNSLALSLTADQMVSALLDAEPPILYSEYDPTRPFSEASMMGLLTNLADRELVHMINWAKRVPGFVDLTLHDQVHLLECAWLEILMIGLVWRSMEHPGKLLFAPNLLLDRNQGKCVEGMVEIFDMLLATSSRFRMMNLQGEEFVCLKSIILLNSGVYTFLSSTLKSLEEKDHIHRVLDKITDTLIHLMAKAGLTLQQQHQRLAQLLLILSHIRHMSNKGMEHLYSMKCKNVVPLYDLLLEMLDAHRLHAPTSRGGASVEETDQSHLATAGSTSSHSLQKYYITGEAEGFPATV
In words: Competition binding assay with 3H-Estradiol, ERAlpha receptor. As to conditions: IC50 converted to Ki using Cheng-Prusoff equation; 3H-Estradiol competition; read-out: ER binding Ki (ERα). How it is done:
(§1) Competition binding assay is run in a buffer containing 50 mM Hepes, pH 7.5, 1.5 mM EDTA, 150 mM NaCl, 10% glycerol, 1 mg/ml ovalbumin and 5 mM DTT, using 0.025 μCi per well ^3H-Estradiol (NEN #NET517 at 118 Ci/mmol, 1 mCi/ml), 10 ng/well ERAlpha or ERbeta receptor (PanVera). Competing compounds are added at 10 different concentrations. Non-specific binding is determined in the presence of 1 μM of 17-B Estradiol. The binding reaction (140 μl) is incubated for 4 hours at room temperature, then 70 μl of cold DCC buffer is added to each reaction (DCC buffer contains per 50 ml of assay buffer, 0.75 g of charcoal (Sigma) and 0.25 g of dextran (Pharmacia)). Plates are mixed 8 minutes on an orbital shaker at 4° C. Plates are then centrifuged at 3,000 rpm at 4° C. for 10 minutes. An aliquot of 120 μl of the mix is transferred to another 96-well, white flat bottom plate (Costar) and […] of Wallac Optiphase “Hisafe 3” scintillation fluid is added to each well. Plates are sealed and shaken vigorously on an orbital shaker. After an incubation of 2.5 hrs, read plates in a Wallac Microbeta counter. The data is used to calculate an IC50 and % Inhibition at 10 μM. The Kd for ^3H-Estradiol is determined by saturation binding to ER alpha and ER beta receptors. The IC50 values for compounds are converted to Ki using Cheng-Prusoff equation and the Kd determined by saturation binding assay.

In a further experiment the target is T2, ERbeta receptor (Homo sapiens, UniProt Q92731).
T2 construct: purchased PanVera
T2 sequence (Q92731 whole entry): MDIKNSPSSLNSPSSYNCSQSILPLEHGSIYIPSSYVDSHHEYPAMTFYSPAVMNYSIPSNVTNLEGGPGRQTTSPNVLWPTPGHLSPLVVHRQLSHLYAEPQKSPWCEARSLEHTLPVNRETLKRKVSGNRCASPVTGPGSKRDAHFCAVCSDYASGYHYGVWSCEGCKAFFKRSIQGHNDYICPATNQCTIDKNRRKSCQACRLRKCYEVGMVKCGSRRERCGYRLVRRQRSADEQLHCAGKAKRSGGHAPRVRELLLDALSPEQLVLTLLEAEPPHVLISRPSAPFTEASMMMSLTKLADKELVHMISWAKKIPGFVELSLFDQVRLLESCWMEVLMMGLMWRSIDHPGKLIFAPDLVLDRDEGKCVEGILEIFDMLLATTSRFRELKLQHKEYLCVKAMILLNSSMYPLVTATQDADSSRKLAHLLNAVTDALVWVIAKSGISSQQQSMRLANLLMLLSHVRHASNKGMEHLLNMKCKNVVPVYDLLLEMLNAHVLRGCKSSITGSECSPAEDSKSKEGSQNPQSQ
In words: Competition binding assay with 3H-Estradiol, ERbeta receptor. As to conditions: IC50 converted to Ki using Cheng-Prusoff equation; 3H-Estradiol competition; read-out: ER binding Ki (ERβ). Here is the method:
as §1

The term IC50 denotes the concentration that gives 50% inhibition. For orientation: Ki means the equilibrium dissociation constant of an inhibitor or competing ligand from its target.

Take `Oc1ccc2c3c(sc2c1)Cc1ccccc1OC3c1ccc(OCCN2CCCCC2)cc1` (stereo not shown) [Example 1, 5-[4-(2-Piperidin-1-yl-ethoxy)-phenyl]-5,11-dihydro-6-oxa-12-thia-dibenzo[a,f]azulen-2-ol]: the IC50 in experiment [1] was determined as 8 nM; in experiment [2], 19 nM. The “Ishikawa Agonist % Eff” value in experiment [2] came to 4%. In addition, the inhibition constant (Ki) on ERAlpha receptor and on ERbeta receptor was 1 nM in each case.

Turning to `Oc1ccc2c3c(ccc2c1)Cc1ccccc1OC3c1ccc(OCCN2CCCCC2)cc1` (stereo not shown) [Example 2, 13-[4-(2-Piperidin-1-yl-ethoxy)-phenyl]-7,13-dihydro-12-oxa-benzo[4,5]cyclohepta[1,2-a]naphthalen-3-ol], the IC50 in experiment [1] was found to be 10 nM; in experiment [2], 454 nM. In addition, the “Ishikawa Agonist % Eff” value in experiment [2] amounted to 24%. In addition, the Ki at ERAlpha receptor is 2 nM; on ERbeta receptor, 3 nM.
